Experiment [1] addresses human P2Y12 receptor (Homo sapiens, UniProt Q9H244). In words: Human P2Y12 recombinant cell membrane binding assay with 33P 2MeS-ADP. Particulars: competition against 33P 2MeS-ADP, membranes of CHO cells with recombinant human P2Y12 receptor. The method, boiled down: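 CHO membranes expressing human P2Y12 (20 μg/ml stock) preincubated 15 min at RT with compound in HEPES pH 7.4 buffer, then 33P 2MeS-ADP (1.61 nM working solution) added for 20 min at RT. Bound label filtered and counted; four-point, five-fold series from 10 μM final, triplicate, four-parameter fit.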

The subject of experiment [2] is human platelet rich plasma. Nature of the experiment: Inhibition of human platelet aggregation, "Born"-method using single cuvettes. Format: cell-based. The conditions noted are these: 0.1 h, ADP-induced aggregation, 6 minutes.
Experiment [3] relates to human platelet rich plasma. Nature of the experiment: Inhibition of human platelet aggregation, 96-well assay. Format: cell-based. Particulars: Homo sapiens, Platelet, 20 min. The procedure, abridged: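 ADP-induced aggregation read as 650 nm absorbance every minute for 20 min at 37 °C, with shaking between reads. PRP (~3×E8 platelets/ml, diluted with PPP, ACD-A blood from healthy volunteers) was exposed to compound for 5 min before adding a 40 μM ADP stock (15 μl into 150 μl).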

A word on the IC50: it is the midpoint of a concentration-inhibition curve.

Chain of human P2Y12 receptor (Q9H244 whole entry): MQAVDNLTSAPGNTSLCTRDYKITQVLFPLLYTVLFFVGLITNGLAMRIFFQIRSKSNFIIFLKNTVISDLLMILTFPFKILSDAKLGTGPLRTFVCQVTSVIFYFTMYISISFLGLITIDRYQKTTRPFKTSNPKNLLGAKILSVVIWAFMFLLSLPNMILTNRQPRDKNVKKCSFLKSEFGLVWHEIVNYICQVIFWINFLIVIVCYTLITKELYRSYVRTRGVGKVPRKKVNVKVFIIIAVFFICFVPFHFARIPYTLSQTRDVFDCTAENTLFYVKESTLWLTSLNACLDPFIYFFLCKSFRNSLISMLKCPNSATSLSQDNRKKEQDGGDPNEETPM

`CCCOC(=O)N1CCN(C(=O)CNC(=O)c2cc(OCC(=O)N3CCC[C@H]3C(=O)NC3CCC3)n(-c3ccccc3)n2)CC1` [Example 210, 4-[2-({5-[2-((S)-2-Cyclobutylcarbamoyl-pyrrolidin-1-yl)-2-oxo-ethoxy]-1-phenyl-1H-pyrazole-3-carbonyl}-amino)-acetyl]-piperazine-1-carboxylic acid propyl ester]: the results for the IC50 in experiment [1], in experiment [2] and in experiment [3] were 72 nM, 30 nM and 120 nM, respectively.
Take `CCCCOC(=O)N1CCN(C(=O)[C@H](COCC)NC(=O)c2cc(OCC(=O)N3CCC[C@H]3C(=O)NC3CCC3)n(-c3ccccc3)n2)CC1` [Example 227, 4-[(S)-2-({5-[2-((S)-2-Cyclobutylcarbamoyl-pyrrolidin-1-yl)-2-oxo-ethoxy]-1-phenyl-1H-pyrazole-3-carbonyl}-amino)-3-ethoxy-propionyl]-piperazine-1-carboxylic acid butyl ester]: the half-inhibitory concentration (IC50) in experiment [1] amounted to 16 nM; in experiment [2] it was 130 nM; in experiment [3], 130 nM.
On to `CCCCOC(=O)N1CCN(C(=O)[C@@H](NC(=O)c2cc(OCC(=O)N3CCC[C@H]3C(=O)NC3CCC3)n(-c3ccccc3)n2)C2CC2)CC1` [Example 230, 4-[(S)-2-({5-[2-((S)-2-Cyclobutylcarbamoyl-pyrrolidin-1-yl)-2-oxo-ethoxy]-1-phenyl-1H-pyrazole-3-carbonyl}-amino)-2-cyclopropyl-acetyl]-piperazine-1-carboxylic acid butyl ester], for which the half-maximal inhibitory concentration (IC50) is 14 nM in experiment [1], 80 nM in experiment [2] and 210 nM in experiment [3].
The corresponding values for `CCCCOC(=O)N1CCN(C(=O)[C@H](CCOC)NC(=O)c2cc(OCC(=O)N3CCC[C@H]3C(=O)NC3CCC3)n(-c3ccccc3)n2)CC1` [Example 231, 4-[(S)-2-({5-[2-((S)-2-Cyclobutylcarbamoyl-pyrrolidin-1-yl)-2-oxo-ethoxy]-1-phenyl-1H-pyrazole-3-carbonyl}-amino)-4-methoxy-butyryl]-piperazine-1-carboxylic acid butyl ester] are 19 nM, 30 nM and 70 nM.
The corresponding values for `CCCCOC(=O)N1CCN(C(=O)[C@H](CC)NC(=O)c2cc(OCC(=O)N3CCC[C@H]3C(=O)NC3CCC3)n(-c3ccccc3)n2)CC1` [Example 233, 4-[(S)-2-({5-[2-((S)-2-Cyclobutylcarbamoyl-pyrrolidin-1-yl)-2-oxo-ethoxy]-1-phenyl-1H-pyrazole-3-carbonyl}-amino)-butyryl]-piperazine-1-carboxylic acid butyl ester] are 21 nM, 60 nM and 200 nM.
